Laboratory results: patent US20090163461A1, “Ligand for Vesicular Acetylcholine Transporter” (priority 2005, published 2009)
Read-outs that look alike come from different tables or passages of the source.

How the values were obtained:
VAChT in the brain = target: T1, VAChT in the brain (Rattus norvegicus, UniProt Q62666); test: Inhibitory effects of non-radioactive ligands on cerebral distribution of (−)-[^11C]-o-methylvesamicol in rats; format: in vivo; details: 30 minutes; for local accumulation of (−)-[^11C]-o-MeVES in the brain, effect of co-administered non-radioactive ligand: 500 nmol per kg i.v.; for Radioactivity level (% ID/g) Blood / Radioactivity level (% ID/g) Brain (other than above) / Radioactivity level (% ID/g) Cerebellum / Radioactivity level (% ID/g) Cerebral cortex / Radioactivity level (% ID/g) Hippocampus / Radioactivity level (% ID/g) Medulla oblongata / Radioactivity level (% ID/g) Striate body / Radioactivity level (% ID/g) Brain (whole): tracer (−)-[^11C]-o-MeVES 20 MBq i.v. together with ligand 500 nmol per kg, mean ± S.D. n = 4-6
T1 construct: from tissue; host or cells: brain of living rats, tissue counted or sectioned after killing
T1 sequence (Q62666 1-530): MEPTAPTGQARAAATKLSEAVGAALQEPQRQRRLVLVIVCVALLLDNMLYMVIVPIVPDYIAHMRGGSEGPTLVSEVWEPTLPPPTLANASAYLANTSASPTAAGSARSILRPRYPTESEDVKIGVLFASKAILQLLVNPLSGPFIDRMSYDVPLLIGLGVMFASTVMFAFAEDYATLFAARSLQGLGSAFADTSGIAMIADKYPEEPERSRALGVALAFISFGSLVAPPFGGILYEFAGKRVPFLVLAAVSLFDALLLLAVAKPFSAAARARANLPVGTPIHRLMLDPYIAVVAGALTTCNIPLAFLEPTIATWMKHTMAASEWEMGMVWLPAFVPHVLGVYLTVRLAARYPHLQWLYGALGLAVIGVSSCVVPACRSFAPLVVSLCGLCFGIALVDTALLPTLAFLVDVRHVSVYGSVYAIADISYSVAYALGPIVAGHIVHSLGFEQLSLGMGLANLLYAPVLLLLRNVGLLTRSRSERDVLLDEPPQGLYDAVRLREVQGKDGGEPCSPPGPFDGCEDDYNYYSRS
Procedure: To the caudal vein of each rat, an injection (0.1 ml) containing 20 MBq of (−)-[^11C]-o-MeVES and 0.1 ml (equivalent to 500 nmol per kg body weight) of a DMSO solution containing each of the above-described non-radioactive ligands were administered together. Thirty minutes after the administration, the rats were killed by cervical dislocation, and blood was drawn from the heart using a syringe, after which the brain was extirpated from each rat. The extirpated brain was divided into the cerebral cortex, hippocampus, striate body, cerebellum, medulla oblongata, and other parts, and the radioactivity in each tissue was measured using a gamma counter. Each tissue was also weighed.
For control, an injection (0.1 ml) containing 20 MBq of (−)-[^11C]-o-MeVES and a ligand-free DMSO solution (0.1 ml) were administered to the caudal vein of each rat, and measurements were taken in the same manner as described above.

σ-1 receptor = σ-1 receptor (Rattus norvegicus, UniProt Q9R0C9); test: biochemical
Chain of σ-1 receptor (Q9R0C9 whole entry): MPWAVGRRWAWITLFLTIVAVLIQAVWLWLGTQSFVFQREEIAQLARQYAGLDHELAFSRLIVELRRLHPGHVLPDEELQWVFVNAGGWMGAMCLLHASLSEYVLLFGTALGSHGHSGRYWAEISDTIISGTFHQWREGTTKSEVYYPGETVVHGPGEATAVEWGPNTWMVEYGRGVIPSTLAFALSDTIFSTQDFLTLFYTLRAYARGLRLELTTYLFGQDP
Procedure: (§1) The affinity of (−)-o-MeVES for VAChT and sigma receptors (σ-1, σ-2) was examined by in vitro drug inhibition experiments.
(§2) First, the brain and liver were extirpated from a rat, a 0.32 M sucrose solution in an amount by weight 10 times the weight of each tissue was added, and each tissue was ground using a Teflon homogenizer. Next, the ground tissue solution was centrifuged at 1000 g for 10 minutes, and the precipitated fraction was removed. Furthermore, the supernatant was centrifuged at 55000 g for 60 minutes, and the precipitated tissue was added to, and suspended in, 50 mM Tris-HCl buffer solution/0.32 M sucrose solution (pH 7.8).
(§3) Ki=IC50/(1+C/Kd)(nM) formula

σ-2 receptor = target: T2, σ-2 receptor (Rattus norvegicus, UniProt Q5U3Y7); test: biochemical; format: binding
T2 construct: except that rat liver membranes (300-600 μg (protein weight)/200 μl) were used; from tissue; host or cells: rat liver membranes
T2 sequence (Q5U3Y7 1-176): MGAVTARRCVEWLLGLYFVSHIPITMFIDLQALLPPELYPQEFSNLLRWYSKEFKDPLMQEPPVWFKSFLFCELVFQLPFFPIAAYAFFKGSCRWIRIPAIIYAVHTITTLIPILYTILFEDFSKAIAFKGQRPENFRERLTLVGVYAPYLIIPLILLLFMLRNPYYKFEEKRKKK
Procedure: as §1, §2
3 nM [^3H]DTG ([^3H]-1,3-di-o-tolylguanidine) was used as the radioisotope (RI) for the σ-2 receptor. […] A test was performed in the same procedures as those for the test of affinity for the […] except that rat liver membranes (300-600 μg (protein weight)/200 μl) were used.
as §3

VAChT [1] = target: T3, VAChT (Rattus norvegicus, UniProt Q62666); test: biochemical
T3 sequence (Q62666 1-530): T1 sequence (Q62666 1-530)
Procedure: as §1, §2
For each test compound, samples at 10 different concentrations (concentrations set at 10 levels in the range of 10^−5 M to 10^−10 M) were prepared.
For each sample, the RI (100 μl), sample (50 μl), 50 mM Tris-HCl buffer solution (pH 7.8) (100 μl), 2 μM DTG solution (50 μl) (200 nM as the final concentration), and, finally, the prepared rat cerebral membrane (500-900 μg (protein weight)/200 μl) was added to a test tube, and they were reacted at 37° C. for 60 minutes. The test tube was cooled with ice to stop the reaction, and the rat cerebral membrane was immediately adsorbed to a glass filter using a cell harvester. After the glass filter was washed with 50 mM Tris-HCl buffer solution (pH 7.8) (5 ml) three times, the rat cerebral membrane, together with the glass filter, was placed in a liquid scintillation vial, and a liquid scintillator was added, after which radioactivity was measured using a liquid scintillation counter.
as §3

δ-2 receptor = target: T4, δ-2 receptor (Rattus norvegicus, UniProt Q5U3Y7); details: in vitro, rat brain; mean±standard deviation; Life Sciences 71 (2002) 1591-1598; read-out: Ki value, affinity for δ-2 receptor; cited from earlier work
T4 construct: as a result of in vitro experiments using the rat brain
T4 sequence (Q5U3Y7 1-176): T2 sequence (Q5U3Y7 1-176)

δ-1 receptor = target: T5, δ-1 receptor (Rattus norvegicus, UniProt Q9R0C9); details: in vitro, rat brain; mean±standard deviation; Life Sciences 71 (2002) 1591-1598; read-out: Ki value, affinity for δ-1 receptor; cited from earlier work
T5 construct: as a result of in vitro experiments using the rat brain; host or cells: rat brain
T5 sequence (Q9R0C9 whole entry): as the sequence (Q9R0C9 whole entry) above

VAChT [2] = target: T3, VAChT; parameters: the brain and liver were extirpated from a rat; from tissue; host or cells: rat brain (cerebral membranes); details: in vitro, rat brain; mean±standard deviation; Life Sciences 71 (2002) 1591-1598; read-out: Ki value, affinity for VAChT; cited from earlier work
[3] = compared with (−)-o-iodovesamicol

SMILES | local accumulation of (−)-[^11C]-o-MeVES in the brain, effect of co-administered non-radioactive ligand (VAChT in the brain) | Radioactivity level (% ID/g) Blood (VAChT in the brain) [% ID/g] | Radioactivity level (% ID/g) Brain (other than above) (VAChT in the brain) [% ID/g] | Radioactivity level (% ID/g) Cerebellum (VAChT in the brain) [% ID/g] | Radioactivity level (% ID/g) Cerebral cortex (VAChT in the brain) [% ID/g] | Radioactivity level (% ID/g) Hippocampus (VAChT in the brain) [% ID/g] | Radioactivity level (% ID/g) Medulla oblongata (VAChT in the brain) [% ID/g] | Radioactivity level (% ID/g) Striate body (VAChT in the brain) [% ID/g] | Radioactivity level (% ID/g) Brain (whole) (VAChT in the brain) [% ID/g] | IC50 (σ-2 receptor) [nM] | Ki (σ-2 receptor) [nM] | IC50 (VAChT [1]) [nM] | Ki (VAChT [1]) [nM] | further results
Cc1ccccc1C1CCN(C2CCCCC2O)CC1 (single isomer, unassigned; (-)) [(−)-o-MeVES, (−)-2-(4-(2-methylphenyl)piperidino)cyclohexanol] | inhibited | 0.14 ± 0.02 | 0.63 ± 0.10 | 0.60 ± 0.07 | 0.70 ± 0.10 | 0.71 ± 0.08 | 0.74 ± 0.09 | 0.71 ± 0.10 | 0.68 ± 0.10 | 320 | 266 ± 28 | 16 | 6.7 ± 0.4 | IC50 (σ-1 receptor): 38 nM; Ki (σ-1 receptor): 33.7 ± 5.9 nM; melting point: 116 to 118 °C; 6-1 receptor/VAChT ratio of the Ki values (VAChT [1]; [3]): higher; 6-2 receptor/VAChT ratio of the Ki values (VAChT [1]; [3]): higher
OC1CCCCC1N1CCC(c2ccccc2)CC1 (single isomer, unassigned; (-)) [(−)-Vesamicol, 2-(4-Phenylpiperidino)-cyclohexanol] | inhibited | 0.13 ± 0.01 | 0.69 ± 0.04 | 0.62 ± 0.03 | 0.71 ± 0.04 | 0.66 ± 0.05 | 0.80 ± 0.08 | 0.72 ± 0.03 | 0.70 ± 0.04 | 420 | 346 ± 37 | 13 | 4.4 ± 0.6 | 
OC1CCCCC1N1CCC(c2ccccc2I)CC1 (single isomer, unassigned; (-)) [(−)-o-iodovesamicol] |  |  |  |  |  |  |  |  |  |  |  |  |  | Ki (δ-2 receptor): 554 ± 137 nM; Ki (δ-1 receptor): 62.2 ± 12 nM; Ki (VAChT [2]): 15 ± 2.9 nM
CC(C)=CCN1CCC2(C)c3cc(O)ccc3CC1C2C (single isomer, unassigned; (+)) [(+)-Pentazocine, (+)-pentazocine] | not inhibited | 0.12 ± 0.01 | 2.52 ± 0.43 | 2.07 ± 0.31 | 2.72 ± 0.40 | 2.59 ± 0.44 | 2.83 ± 0.45 | 2.39 ± 0.40 | 2.52 ± 0.40 |  |  | 830 | 315 ± 121 | 
COc1ccc(CCN2CCN(CCCc3ccccc3)CC2)cc1OC [SA4503, 1-(3,4-dimethoxyphenethyl)-4-(3-phenyl-propyl)piperazine] | inhibited | 0.14 ± 0.02 | 0.55 ± 0.05 | 0.52 ± 0.07 | 0.62 ± 0.08 | 0.84 ± 0.18 | 0.66 ± 0.08 | 0.61 ± 0.07 | 0.59 ± 0.07 | 280 | 242 ± 17 | 120 | 50.2 ± 7.2 | 
